Measurements taken from ChEMBL document CHEMBL1148813, “Discovery and characterization of novel, potent, non-peptide parathyroid hormone-1 receptor antagonists” (J Med Chem, 2007).

Columns and labels:
[1] = target: T1, Parathyroid hormone/parathyroid hormone-related peptide receptor (Homo sapiens, UniProt Q03431); experiment: Displacement of [125I]-[Nle,8,18 Tyr34]-hPTH(1-34) from human recombinant PTH1R expressed in HEK293 cells; assay type: cell-based
T1 sequence (Q03431 whole entry): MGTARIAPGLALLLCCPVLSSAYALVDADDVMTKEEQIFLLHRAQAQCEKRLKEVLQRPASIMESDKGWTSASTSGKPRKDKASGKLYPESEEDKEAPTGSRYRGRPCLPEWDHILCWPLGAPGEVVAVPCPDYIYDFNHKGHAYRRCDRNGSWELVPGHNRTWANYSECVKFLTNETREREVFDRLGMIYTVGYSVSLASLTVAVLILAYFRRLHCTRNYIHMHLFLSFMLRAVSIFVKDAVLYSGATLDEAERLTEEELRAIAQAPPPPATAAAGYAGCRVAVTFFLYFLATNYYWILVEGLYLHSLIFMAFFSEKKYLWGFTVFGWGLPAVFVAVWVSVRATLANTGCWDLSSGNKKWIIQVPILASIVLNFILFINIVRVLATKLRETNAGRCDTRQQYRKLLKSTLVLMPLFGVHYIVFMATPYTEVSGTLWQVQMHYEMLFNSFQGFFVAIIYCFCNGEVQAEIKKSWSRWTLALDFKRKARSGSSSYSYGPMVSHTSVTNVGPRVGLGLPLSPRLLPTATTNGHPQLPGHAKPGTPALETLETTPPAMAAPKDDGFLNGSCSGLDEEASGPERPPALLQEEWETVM

[2] = target: T2, Parathyroid hormone/parathyroid hormone-related peptide receptor (Mus musculus, UniProt P41593); experiment: Antagonist activity at mouse wild type PTH1 receptor expressed in MC3T3E1 cells assessed as inhibition of PTHrP (1-34)-stimulated cAMP production at 3 uM; assay type: functional, cell-based; conditions: read-out: pA2 (converted)
T2 sequence (P41593 whole entry): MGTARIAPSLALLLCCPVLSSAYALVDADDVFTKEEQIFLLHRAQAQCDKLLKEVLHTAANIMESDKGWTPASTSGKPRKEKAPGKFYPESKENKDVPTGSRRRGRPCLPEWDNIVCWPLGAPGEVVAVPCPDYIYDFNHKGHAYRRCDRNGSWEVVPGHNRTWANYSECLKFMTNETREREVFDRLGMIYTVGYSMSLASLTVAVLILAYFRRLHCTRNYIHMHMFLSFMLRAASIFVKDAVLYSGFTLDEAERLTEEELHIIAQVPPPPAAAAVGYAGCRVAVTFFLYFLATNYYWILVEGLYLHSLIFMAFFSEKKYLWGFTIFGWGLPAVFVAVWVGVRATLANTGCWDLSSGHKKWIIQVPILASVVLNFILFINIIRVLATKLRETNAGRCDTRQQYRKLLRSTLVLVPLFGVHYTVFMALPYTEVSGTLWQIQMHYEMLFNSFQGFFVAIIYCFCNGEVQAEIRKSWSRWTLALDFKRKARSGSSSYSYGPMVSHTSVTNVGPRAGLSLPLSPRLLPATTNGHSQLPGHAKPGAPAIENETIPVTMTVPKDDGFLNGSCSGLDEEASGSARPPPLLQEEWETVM

[3] = target: Parathyroid hormone 2 receptor (Homo sapiens) (UniProt P49190); experiment: Antagonist activity at human recombinant PTH2 receptor expressed in CHOK1 cells assessed as inhibition of TIP (1-39)-stimulated cAMP production at 10 uM; conditions: read-out: pA2 (converted)
Sequence of Parathyroid hormone 2 receptor (Homo sapiens) (P49190 whole entry, looked up): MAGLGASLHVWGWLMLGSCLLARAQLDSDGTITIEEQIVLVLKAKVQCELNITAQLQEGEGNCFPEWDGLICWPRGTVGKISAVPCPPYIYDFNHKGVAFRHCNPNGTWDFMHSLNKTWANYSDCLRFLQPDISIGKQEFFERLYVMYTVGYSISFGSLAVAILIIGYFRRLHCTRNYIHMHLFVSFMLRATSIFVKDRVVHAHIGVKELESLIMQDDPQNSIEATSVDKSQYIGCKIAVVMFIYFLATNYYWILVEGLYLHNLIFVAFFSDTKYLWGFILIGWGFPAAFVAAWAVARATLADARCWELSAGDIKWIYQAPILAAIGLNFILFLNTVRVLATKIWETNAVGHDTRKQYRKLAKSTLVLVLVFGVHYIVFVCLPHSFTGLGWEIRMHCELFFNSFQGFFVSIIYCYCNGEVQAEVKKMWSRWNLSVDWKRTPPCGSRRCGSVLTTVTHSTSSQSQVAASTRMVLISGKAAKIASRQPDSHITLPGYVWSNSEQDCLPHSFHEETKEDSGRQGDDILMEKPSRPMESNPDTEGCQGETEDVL

[4] = target: T1, Parathyroid hormone/parathyroid hormone-related peptide receptor; experiment: Antagonist activity at human wild type PTH1 receptor expressed in SaOS2 cells assessed as inhibition of PTHrP (1-34)-stimulated cAMP production at 3 uM; assay type: functional, cell-based, SAOS-2; conditions: read-out: pA2 (converted)
[5] = target: T3, Parathyroid hormone/parathyroid hormone-related peptide receptor (Homo sapiens) (UniProt Q03431); experiment: Antagonist activity at human wild type PTH1 receptor expressed in SaOS2 cells assessed as inhibition of PTHrP (1-34)-stimulated cAMP production; assay type: functional, cell-based; conditions: SAOS-2
T3 sequence (whole entry): T1 sequence (Q03431 whole entry)

Homo sapiens = species on record: Homo sapiens; experiment: Selectivity for human recombinant PTH1 receptor over human recombinant PTH2 receptor
[6] = target: T1, Parathyroid hormone/parathyroid hormone-related peptide receptor; experiment: Antagonist activity at human recombinant PTH1 receptor expressed in HEK293 cells assessed as inhibition of PTH(1-34)-stimulated cAMP production; assay type: functional, cell-based; conditions: read-out: pA2 (converted)
[7] = target: T3, Parathyroid hormone/parathyroid hormone-related peptide receptor (Homo sapiens); experiment: Displacement of [125I]-[Nle,8,18 Tyr34]-hPTH(1-34) from human recombinant PTH1R expressed in HEK293 cells at 1 uM; assay type: cell-based
[8] = target: T3, Parathyroid hormone/parathyroid hormone-related peptide receptor (Homo sapiens); experiment: Displacement of [125I]-[Nle,8,18 Tyr34]-hPTH(1-34) from human recombinant PTH1R expressed in HEK293 cells at 10 uM; assay type: cell-based

Row | Compound | Ki [1] [nM] | other results
1 | Cc1ccc2c(c1)N(c1ccc(NC(=N)N)cc1)C(=O)N(Cc1ccccc1)N=C2C1CCCCC1 | 155 | 
2 | Cc1ccc2c(c1)N(c1ccc(NCCc3ncc[nH]3)cc1)C(=O)N(C)N=C2C1CCCCC1 | 13.2 | Kb [2]: 513 nM; Kb [3]: 2880 nM; Kb [4]: 19.5 nM; pKb [5]: 7.55; Selectivity ratio (Homo sapiens): 100; Kb [6]: 17 nM
3 | Nc1ccc(N2C(=O)N(Cc3ccccc3)N=C(C3CCCCC3)c3ccccc32)cc1 |  | inhibition [7]: 39%
4 | Cc1ccc2c(c1)N(c1ccc(NCCc3ncc[nH]3)cc1)C(=O)N(Cc1ccccc1)N=C2C1CCCCC1 | 3.8 | 
5 | N=C(N)Nc1ccc(N2C(=O)N(Cc3ccccc3)N=C(CC3CCCCC3)c3ccccc32)cc1 | 562 | 
6 | N=C(N)Nc1ccc(CN2C(=O)N(Cc3ccccc3)N=C(C3CCCCC3)c3ccccc32)cc1 | 933 | 
7 | NCC(=O)Nc1ccc(N2C(=O)N(Cc3ccccc3)N=C(C3CCCCC3)c3ccccc32)cc1 | 676 | 
8 | N=C(N)Nc1cccc(N2C(=O)N(Cc3ccccc3)N=C(C3CCCCC3)c3ccccc32)c1 | 2820 | 
9 | CC(C)C(N)C(=O)Nc1ccc(N2C(=O)N(Cc3ccccc3)N=C(C3CCCCC3)c3ccccc32)cc1 (stereo not given) | 380 | 
10 | CC(C)C1=NN(Cc2ccccc2)C(=O)N(c2ccc(NC(=N)N)cc2)c2ccccc21 |  | inhibition [8]: 43%
11 | Cc1ccc2c(c1)N(c1ccc(NCCc3ncc[nH]3)cc1)C(=O)N(C(C)C)N=C2C1CCCCC1 | 3.55 | 
12 | N=C(N)Nc1ccc(N2C(=O)N(Cc3ccccc3)N=C(C3CCCCC3)c3ccccc32)cc1 | 708 | 
13 | COCCN1N=C(C2CCCCC2)c2ccc(C)cc2N(c2ccc(NCCc3ncc[nH]3)cc2)C1=O | 83.2 | 
14 | Cc1cc2c(cc1OCc1ccccc1)C(C1CCCCC1)=NN(C)C(=O)N2c1ccc(NCCc2ncc[nH]2)cc1 | 1.82 | 
15 | CCCN1N=C(C2CCCCC2)c2ccc(C)cc2N(c2ccc(NCCc3ncc[nH]3)cc2)C1=O | 6.76 | 
16 | Cc1ccc2c(c1)N(c1ccc(NCCCc3ncc[nH]3)cc1)C(=O)N(C)N=C2C1CCCCC1 | 20.4 | 
17 | N=C(N)Nc1ccc(N2C(=O)N(Cc3ccccc3)N=C(c3ccccc3)c3ccccc32)cc1 | 3390 | 
18 | Cc1ccc2c(c1)N(c1ccc(NCc3ncc[nH]3)cc1)C(=O)N(C)N=C2C1CCCCC1 | 50.1 | 
19 | O=C1N(Cc2ccccc2)N=C(C2CCCCC2)c2ccccc2N1c1ccc(NC2=NCCN2)cc1 | 288 | 
20 | N=C(N)Nc1ccc(N2C(=O)N(Cc3ccccc3)N=C(CN3CCCCC3)c3ccccc32)cc1 |  | inhibition [8]: 27%
21 | Cc1ccc2c(c1)N(c1ccc(NCCc3ncc[nH]3)cc1)C(=O)N(C1CCc3ccccc3CC1)N=C2C1CCOCC1 | 6.76 | 
22 | Cc1ccc2c(c1)N(c1ccc(NC3=NCCN3)cc1)C(=O)N(Cc1ccccc1)N=C2C1CCCCC1 | 70.8 | 
23 | Cc1ccc2c(c1)N(c1ccc(NCCc3ncc[nH]3)cc1)C(=O)N(C)N=C2C1CCOCC1 | 617 | 
24 | O=C(O)c1ccc(N2C(=O)N(Cc3ccccc3)N=C(C3CCCCC3)c3ccccc32)cc1 | > 100000 | 
25 | Cc1cc2c(cc1NCc1ccccc1)C(C1CCCCC1)=NN(C)C(=O)N2c1ccc(NCCc2ncc[nH]2)cc1 | 1.45 | 
26 | Cc1ccc2c(c1)N(c1ccc(NCCc3ncc[nH]3)cc1)C(=O)N(C1CCOCC1)N=C2C1CCCCC1 | 6.61 | 
27 | Cc1ccc2c(c1)N(c1ccc(NCCc3ncc[nH]3)cc1)C(=O)N(C1CCc3ccccc3CC1)N=C2C1CCCCC1 | 0.912 | 
28 | Cc1ccc2c(c1)N(c1ccc(NCCc3ncc[nH]3)cc1)C(=O)N(C1COc3ccccc3OC1)N=C2C1CCCCC1 | 8.71 | 
29 | Cc1ccc2c(c1)N(c1ccc(NC(=O)C(N)C(C)C)cc1)C(=O)N(Cc1ccccc1)N=C2C1CCCCC1 (stereo not given) | 112 | 
